Measurements reported in EP4778931A1, “ULK1 INHIBITOR, PREPARATION METHOD THEREFOR AND USE THEREOF” (Dovetree Medicines Unus, Inc., priority 2023, dated 2025).

Key:
[1] = tested on: autophagy level in HEK293 GFP-LC3 stably transfected cells; assay: Inhibition of autophagy level in HEK293 GFP-LC3 stably transfected cells (GFP fluorescence, high-content imaging); type: cell-based; conditions: Homo sapiens, Torin1 100 nM, 24 h incubation, 8 concentrations, highest 10 µM, read-out: Autophagic Flux IC50
Experimental: The inhibitory effect of the compound of the present disclosure on intracellular autophagy was evaluated by testing the impact of the compound of the present disclosure on the fluorescence intensity of HEK293 GFP-LC3 stably transfected cells.
HEK293 GFP-LC3 stably transfected cells (HEK293, ATCC, CRL-1573) were cultured in a complete medium, namely, a DMEM medium (Gibco, 11965-092) containing 10% fetal bovine serum (Corning, 35-081-CV), 1% double antibody (Gibco, 15140-122) and 1 µg/mL of Puromycin (Invitrogen- A1113803).
Cell plating: HEK293 GFP-LC3 stably transfected cells at 80% growth confluence were digested, diluted with a medium free of Puromycin, and added to a 96-well cell culture plate (Geriner, 655090) at 12,000 cells per well, with a volume of 90 µL.
Compound incubation: 5 µL of Torin1 and 5 µL of a serially diluted compound were added to each well so that the highest concentration of the compound in the reaction system was 10 µM. 3-fold serial dilution with 8 concentrations was performed, and the final concentration of Torin1 was 100 nM. The DMSO content in the system was 0.1%. The positive control wells (PC) contain DMSO at a final concentration of 0.1%, and the negative control wells (NC) contain 100 nM of Torin1 with 0.1% of DMSO. The reaction plate was placed in an incubator at 37°C in 5% CO2, and was incubated for 24 h.
Cell staining and fixation: The cell plate was taken out, and 10 µL of Hochest33342 nuclear staining reagent (Thermo, H1399) was added to each well, followed by incubation at 37°C in 5% CO2 for 30 min. After the incubation was completed, the cell supernatant was discarded, and 100 µL of pre-cooled 4% paraformaldehyde was added to each well to fix the cells for 15 min. Then, the fixative was discarded, and 100 µL of PBS was added to each well. Images were captured for analysis using a high-content cell imaging analyzer (PE, Operetta CLS), and GFP fluorescence signals were collected for data processing.
The average GFP fluorescence signal intensity in the reaction wells was collected for the calculation of the inhibition ratio: [formula]
The dose-effect curve was fitted using the log(inhibitor) vs. response -Variable slope of Graphpad Prism8, thereby affording the IC50 value of each compound for inhibiting autophagy level in HEK293 GFP-LC3 stably transfected cells.

[2] = tested on: ATG13 phosphorylation level in MIA PaCa-2 cells; assay: Inhibition of ATG13 phosphorylation level in MIA PaCa-2 cells (Phospho-Atg13 (ser355) ELISA); type: cell-based; conditions: Homo sapiens, Torin1 100 nM, 24 h incubation, 8 concentrations, highest 10 µM, read-out: pATG13 ELISA IC50
Experimental: The inhibitory effect of the compound of the present disclosure on ULK1 was evaluated by testing the inhibitory effect of the compound of the present disclosure on ATG13 phosphorylation level in MIA PaCa-2 cells.
MIA PaCa-2 cells (ATCC, CRM-CRL-1420) were cultured in a complete medium, namely, a DMEM medium (Gibco, 11965-092) containing 10% fetal bovine serum (Corning, 35-081-CV), 2.5% horse serum (Gibco, 16050-122) and 1% double antibody (Gibco, 15140-122). The experiments were performed according to the requirements of the kit (Cell Signaling Technology, 17208C).
Cell plating: MIA PaCa-2 at 80% growth confluence were digested, diluted with the complete medium, and added to a 96-well cell culture plate (Costar, 3596) at 20,000 cells per well, with a volume of 90 µL.
Compound incubation: 5 µL of Torin1 and 5 µL of a serially diluted compound were added to each well so that the highest concentration of the compound in the reaction system was 10 µM. 5-fold serial dilution with 8 concentrations was performed, and the final concentration of Torin1 was 100 nM. The DMSO content in the system was 0.1%. The reaction plate was placed in an incubator at 37°C in 5% CO2, and was incubated for 24 h. 10 µL of Torin1 was added to the negative control wells (NC) to a final concentration of 100 nM, with a DMSO content of 0.1%.
Reaction detection: After the incubation was completed, the cell plate was washed with a pre-cooled DPBS (Corning, 21-031-CVC) to wash away the compound and medium. 50 µL of pre-cooled cell lysis solution was added to each well, incubated on ice for 10 min. The cell plate was centrifuged, and the supernatant was transfered to an ELISA reaction plate. Simultaneously, 50 µL of Phospho-Atg13 (ser355) rabbit detection antibody was added, followed by incubation at room temperature under shaking for 60 min. After the incubation was completed, the reaction plate was washed with a washing solution for 4 times. 100 µL of TMB substrate was added for color development reaction, followed by incubation under shaded conditions with shaking for 15 min. Finally, 100 µL of stop solution was added to each well. The reaction was terminated by shaking for 10 s, and the absorbance value at 450 nm and 560 nm were collected within 10 min using Envision (Perkin Elmer, EnVision 2105).
The inhibition ratio was calculated by subtracting the absorbance value at […] from the absorbance value at 450 nm for each well. The inhibition ratio formula is as follows: [formula]
The dose-effect curve was fitted using the log (inhibitor) vs. response -Variable slope of Graphpad Prism8, thereby affording the IC50 value of each compound for inhibiting ATG13 phosphorylation level.

| Compound | IC50 [1] [nM] | IC50 [2] [nM] |
| --- | --- | --- |
| CN1CCN2c3ccc(Nc4ncc(C(F)(F)F)c(N5CCN(C)C(=O)C5)n4)cc3COCC2C1 (stereo not shown) [Compound 1] | > 1000 | > 1000 |
| CN1CCN2c3ccc(Nc4ncc(C(F)(F)F)c(N5CCC6(CCN(C)C6)CC5)n4)cc3COCC2C1 (stereo not shown) [Compound 2] | 100 to 1000 | > 1000 |
| CN1CCN2c3ccc(Nc4ncc(C(F)(F)F)c(OCCCN5CCCCC5=O)n4)cc3COCC2C1 (stereo not shown) [Compound 3] | 100 to 1000 | 100 to 1000 |
| CN1CCN2c3ccc(Nc4ncc(C(F)(F)F)c(N5CCC(n6cccn6)CC5)n4)cc3COCC2C1 (stereo not shown) [Compound 4] | 100 to 1000 | > 1000 |
| CN1CCN2c3ccc(Nc4ncc(C(F)(F)F)c(N5CCC6(CCN(C)C6)C5)n4)cc3COCC2C1 (stereo not shown) [Compound 5] | 100 to 1000 | 100 to 1000 |
| CN1CCN2c3ccc(Nc4ncc(C(F)(F)F)c(N[C@H]5CC[C@@H](n6cccn6)CC5)n4)cc3COCC2C1 (stereo partly shown) [Compound 6] | 100 to 1000 | 100 to 1000 |
| CN1CCN2c3ccc(Nc4ncc(C(F)(F)F)c(NCCCn5cccn5)n4)cc3COCC2C1 (stereo not shown) [Compound 8] | 100 to 1000 | > 1000 |
| CN1CCN2c3ccc(Nc4ncc(C(F)(F)F)c(OCCCc5ccccc5C#N)n4)cc3COCC2C1 (stereo not shown) [Compound 9] | 100 to 1000 | 100 to 1000 |
| CN1CCN2c3ccc(Nc4ncc(C(F)(F)F)c(NCCCN5CCCCC5=O)n4)cc3COCC2C1 (stereo not shown) [Compound 11] | > 1000 | < 100 |
| CN1CCN2c3ccc(Nc4ncc(C(F)(F)F)c(OCCCN5CCCCC5=O)n4)cc3OCC2C1 (stereo not shown) [Compound 12] | 100 to 1000 | 100 to 1000 |
| CN1CCN2c3ccc(Nc4ncc(C(F)(F)F)c(N5CC6(CCN(C)C6)C5)n4)cc3COCC2C1 (stereo not shown) [Compound 20] | > 1000 | 100 to 1000 |
| CN1CCN2c3ccc(Nc4ncc(C(F)(F)F)c(NC5CCN(C(=O)C6CCC6)CC5)n4)cc3COCC2C1 (stereo not shown) [Compound 21] | 100 to 1000 | > 1000 |
| CN1CCN2c3ccc(Nc4ncc(C(F)(F)F)c(N5CC6(CN(C)C6)C5)n4)cc3COCC2C1 (stereo not shown) [Compound 22] | > 1000 | 100 to 1000 |
| CN1CCN2c3ccc(Nc4ncc(C(F)(F)F)c(OCCCn5cccn5)n4)cc3COCC2C1 (stereo not shown) [Compound 23] | 100 to 1000 | > 1000 |
